Experimental data as given in article PMC6897958, “Structural basis of ligand selectivity and disease mutations in cysteinyl leukotriene receptors” (Nature Communications, 2019).
Entries after “also recorded” stand apart in the source; their conditions may differ.

Legend:
HEK293 cells = experiment: Quantification of LTD4 degradation in IP1 assay (UPLC/MS); assay type: in vitro ADME; details: 10 µM LTD4 over HEK293 monolayer, 30 min, 37 °C, with or without L-Cys
Procedure: HEK293 cells were seeded in a 6-well plate at a density of 300,000 cells per well. Forty-eight hours after seeding, medium was removed, and cells were washed twice with PBS. […] After incubation, supernatant was filtered through a 0.22 µm PVDF filter and an internal standard was added before injection on UPLC/MS (Waters UPLC system coupled with a SQ detector 2 and a PDA eλ detector, using an Acquity UPLC BEH C18 column, 2.1 mm × 50 mm, 1.7 μm spherical size). UPLC chromatograms were recorded using the following gradient: water + 0.1% TFA and acetonitrile (0 → 0.2 min, 5% acetonitrile; 0.2 → 1.5 min, 5% → 95%; 1.5 → 1.8 min, 95%; 1.8 → 2.0 min, 95% → 5%; and 2.0 → 2.5 min, 5%). Quantification was done by determining the area under the curve (AUC) ratio of the tested compound over AUC of the internal standard. […] Quantification results are expressed as mean ± s.e.m. of three independent experiments.

CysLT2R wild type = target: T1, CysLT2R wild type (Homo sapiens, UniProt Q9NS75); experiment: IP1 production assay (Cisbio IP-One), HEK293 cells transfected with wild-type CysLT2R; assay type: cell-based
T1 construct: host or cells: HEK293 (ATCC CRL-1573)
T1 sequence (Q9NS75 whole entry): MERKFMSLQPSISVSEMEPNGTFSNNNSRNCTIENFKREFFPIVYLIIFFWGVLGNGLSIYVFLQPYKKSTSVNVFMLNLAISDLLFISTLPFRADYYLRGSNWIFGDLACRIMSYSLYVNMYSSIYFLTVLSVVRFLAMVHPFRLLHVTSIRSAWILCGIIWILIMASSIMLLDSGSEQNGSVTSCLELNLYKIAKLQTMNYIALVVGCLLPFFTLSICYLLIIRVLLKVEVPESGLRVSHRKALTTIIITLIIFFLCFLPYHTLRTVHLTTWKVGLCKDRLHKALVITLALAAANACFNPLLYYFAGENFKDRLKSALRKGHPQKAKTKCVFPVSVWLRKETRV
Procedure: (§1) For CysLT2R functional assays, the initial CysLT2R wild-type gene with an N-terminal 3 × HA tag cloned into pcDNA3.1+ (Invitrogen) at EcoRI(5′) and XhoI(3′) was purchased from cDNA.org. All further gene modifications (point mutations, truncations, or partner protein fusion) were introduced by overlapping PCR. Sequences of all primers used in this work are listed in Supplementary Table 4.
The Cisbio IP-One kit was used according to the manufacturer’s instructions. […] At 48 h post transfection, the media was removed and the cells were washed with fresh Hank’s Balanced Salt Solution. […] After equilibration for 30 min at 37 °C, the cells were lysed with IP1-D2 and Ab-Crypt reagents in lysis buffer and then incubated for 1 h at RT. […] Data were plotted using the three parameters EC50/IC50 fit in GraphPad Prism 7 (San Diego, CA) and represent the mean ± s.d. of at least two independent experiments performed in quadruplicate.

CysLT2R E310^8.48G = target: T2, CysLT2R E310^8.48G (Homo sapiens, UniProt Q9NS75, E310G); experiment: IP1 production assay, HEK293 transfected with CysLT2R mutant; assay type: cell-based
T2 construct: expressed in transfected cells; host or cells: HEK293 (ATCC CRL-1573)
T2 sequence (Q9NS75 whole entry E310G): as the sequence (Q9NS75 whole entry) above, with E310G counted along it
Description: as §1
(§2) The Cisbio IP-One kit was used according to the manufacturer’s instructions. HEK293 cells (ATCC CRL-1573) were seeded onto poly-L-Lysine-coated 384-well plates at 20,000 cells per well and transfected with 40 ng of DNA coding for the wild-type CysLT2R or for the CysLT2R mutants using the X-treme-Gene HP (Roche) agent. At 48 h post transfection, the media was removed and the cells were washed with fresh Hank’s Balanced Salt Solution. […] After equilibration for 30 min at 37 °C, the cells were lysed with IP1-D2 and Ab-Crypt reagents in lysis buffer and then incubated for 1 h at RT. […] Data were plotted using the three parameters EC50/IC50 fit in GraphPad Prism 7 (San Diego, CA) and represent the mean ± s.d. of at least two independent experiments performed in quadruplicate.

CysLT2R F137^3.51Y = target: T3, CysLT2R F137^3.51Y (Homo sapiens, UniProt Q9NS75, F137Y); experiment: as above; assay type: cell-based
T3 construct: expressed in transfected cells; host or cells: HEK293 (ATCC CRL-1573)
T3 sequence (Q9NS75 whole entry F137Y): as the sequence (Q9NS75 whole entry) above, with F137Y counted along it
Description: as §1, §2

CysLT2R K194 ^ECL2R = target: T4, CysLT2R K194 ^ECL2R (Homo sapiens, UniProt Q9NS75, K194R); experiment: as above; assay type: cell-based
T4 construct: expressed in transfected cells; host or cells: HEK293 (ATCC CRL-1573)
T4 sequence (Q9NS75 whole entry K194R): as the sequence (Q9NS75 whole entry) above, with K194R counted along it
Description: as §1, §2

CysLT2R I126^3.40V = target: T5, CysLT2R I126^3.40V (Homo sapiens, UniProt Q9NS75, I126V); experiment: as above; assay type: cell-based
T5 construct: expressed in transfected cells; host or cells: HEK293 (ATCC CRL-1573)
T5 sequence (Q9NS75 whole entry I126V): as the sequence (Q9NS75 whole entry) above, with I126V counted along it
Description: as §1, §2

CysLT2R N301^7.49D = target: T6, CysLT2R N301^7.49D (Homo sapiens, UniProt Q9NS75, N301D); experiment: as above; assay type: cell-based
T6 construct: expressed in transfected cells; host or cells: HEK293 (ATCC CRL-1573)
T6 sequence (Q9NS75 whole entry N301D): as the sequence (Q9NS75 whole entry) above, with N301D counted along it
Description: as §1, §2

CysLT2R W51^1.45V = target: T7, CysLT2R W51^1.45V (Homo sapiens, UniProt Q9NS75, W51V); experiment: as above; assay type: cell-based
T7 construct: expressed in transfected cells; host or cells: HEK293 (ATCC CRL-1573)
T7 sequence (Q9NS75 whole entry W51V): as the sequence (Q9NS75 whole entry) above, with W51V counted along it
Description: as §1, §2

CysLT2R E310^8.48A = target: T8, CysLT2R E310^8.48A (Homo sapiens, UniProt Q9NS75, E310A); experiment: as above; assay type: cell-based
T8 construct: expressed in transfected cells; host or cells: HEK293 (ATCC CRL-1573)
T8 sequence (Q9NS75 whole entry E310A): as the sequence (Q9NS75 whole entry) above, with E310A counted along it
Description: as §1, §2

CysLT2R Y127^3.41W = target: T9, CysLT2R Y127^3.41W (Homo sapiens, UniProt Q9NS75, Y127W); experiment: as above; assay type: cell-based
T9 construct: expressed in transfected cells; host or cells: HEK293 (ATCC CRL-1573)
T9 sequence (Q9NS75 whole entry Y127W): as the sequence (Q9NS75 whole entry) above, with Y127W counted along it
Description: as §1, §2

CysLT2R M201^5.38V = target: T10, CysLT2R M201^5.38V (Homo sapiens, UniProt Q9NS75, M201V); experiment: as above; assay type: cell-based
T10 construct: expressed in transfected cells; host or cells: HEK293 (ATCC CRL-1573)
T10 sequence (Q9NS75 whole entry M201V): as the sequence (Q9NS75 whole entry) above, with M201V counted along it
Description: as §1, §2

CysLT2R N202^5.39H = target: T11, CysLT2R N202^5.39H (Homo sapiens, UniProt Q9NS75, N202H); experiment: as above; assay type: cell-based
T11 construct: expressed in transfected cells; host or cells: HEK293 (ATCC CRL-1573)
T11 sequence (Q9NS75 whole entry N202H): as the sequence (Q9NS75 whole entry) above, with N202H counted along it
Description: as §1, §2

CysLT2R F260^6.48W = target: T12, CysLT2R F260^6.48W (Homo sapiens, UniProt Q9NS75, F260W); experiment: as above; assay type: cell-based
T12 construct: expressed in transfected cells; host or cells: HEK293 (ATCC CRL-1573)
T12 sequence (Q9NS75 whole entry F260W): as the sequence (Q9NS75 whole entry) above, with F260W counted along it
Description: as §1, §2

CysLT2R L129^3.43Q = target: T13, CysLT2R L129^3.43Q (Homo sapiens, UniProt Q9NS75, L129Q); experiment: as above; assay type: cell-based; details: for remaining activity at 1 µM: HEK293, Log[Antagonist] -6 M, L129Q constitutive activity, source data Supp Figure 6D; for remaining activity at 0.01 µM: HEK293, Log[Antagonist] -8 M; for remaining activity at 0.001 µM: HEK293, Log[Antagonist] -9 M; for reversal of constitutive activity (IP1 production) of L129^3.43Q: antagonist 1 µM
T13 construct: expressed in transfected cells; host or cells: HEK293 (ATCC CRL-1573)
T13 sequence (Q9NS75 1-346 L129Q): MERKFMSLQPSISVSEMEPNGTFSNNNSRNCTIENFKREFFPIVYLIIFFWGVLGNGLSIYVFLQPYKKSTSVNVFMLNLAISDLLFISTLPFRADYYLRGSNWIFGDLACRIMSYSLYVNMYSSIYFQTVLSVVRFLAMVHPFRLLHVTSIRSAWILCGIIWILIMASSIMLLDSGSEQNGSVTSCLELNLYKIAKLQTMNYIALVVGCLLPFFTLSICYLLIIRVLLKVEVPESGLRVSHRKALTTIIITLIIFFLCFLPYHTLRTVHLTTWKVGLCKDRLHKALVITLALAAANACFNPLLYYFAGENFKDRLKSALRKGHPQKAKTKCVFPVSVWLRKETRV
Description: as §1, §2

CysLT2R K194 ^ECL2N = target: T14, CysLT2R K194 ^ECL2N (Homo sapiens, UniProt Q9NS75, K194N); experiment: as above; assay type: cell-based
T14 construct: expressed in transfected cells; host or cells: HEK293 (ATCC CRL-1573)
T14 sequence (Q9NS75 whole entry K194N): as the sequence (Q9NS75 whole entry) above, with K194N counted along it
Description: as §1, §2

CysLT2R Y119^3.33F = target: T15, CysLT2R Y119^3.33F (Homo sapiens, UniProt Q9NS75, Y119F); experiment: as above; assay type: cell-based
T15 construct: expressed in transfected cells; host or cells: HEK293 (ATCC CRL-1573)
T15 sequence (Q9NS75 whole entry Y119F): as the sequence (Q9NS75 whole entry) above, with Y119F counted along it
Description: as §1, §2

CysLT2R H284^7.32Q = target: T16, CysLT2R H284^7.32Q (Homo sapiens, UniProt Q9NS75, H284Q); experiment: as above; assay type: cell-based
T16 construct: expressed in transfected cells; host or cells: HEK293 (ATCC CRL-1573)
T16 sequence (Q9NS75 whole entry H284Q): as the sequence (Q9NS75 whole entry) above, with H284Q counted along it
Description: as §1, §2

CysLT2R R267^6.55K = target: T17, CysLT2R R267^6.55K (Homo sapiens, UniProt Q9NS75, R267K); experiment: as above; assay type: cell-based
T17 construct: expressed in transfected cells; host or cells: HEK293 (ATCC CRL-1573)
T17 sequence (Q9NS75 whole entry R267K): as the sequence (Q9NS75 whole entry) above, with R267K counted along it
Description: as §1, §2

CysLT2R V135^3.49D = target: T18, CysLT2R V135^3.49D (Homo sapiens, UniProt Q9NS75, V135D); experiment: as above; assay type: cell-based
T18 construct: expressed in transfected cells; host or cells: HEK293 (ATCC CRL-1573)
T18 sequence (Q9NS75 whole entry V135D): as the sequence (Q9NS75 whole entry) above, with V135D counted along it
Description: as §1, §2

CysLT2R S169^4.56A = target: T19, CysLT2R S169^4.56A (Homo sapiens, UniProt Q9NS75, S169A); experiment: as above; assay type: cell-based
T19 construct: expressed in transfected cells; host or cells: HEK293 (ATCC CRL-1573)
T19 sequence (Q9NS75 whole entry S169A): as the sequence (Q9NS75 whole entry) above, with S169A counted along it
Description: as §1, §2

CysLT2R K37^1.31R = target: T20, CysLT2R K37^1.31R (Homo sapiens, UniProt Q9NS75, K37R); experiment: as above; assay type: cell-based
T20 construct: expressed in transfected cells; host or cells: HEK293 (ATCC CRL-1573)
T20 sequence (Q9NS75 whole entry K37R): as the sequence (Q9NS75 whole entry) above, with K37R counted along it
Description: as §1, §2

[1] = read-out: IP1 production (normalized), single replicate values
[2] = L129Q, Supp Figure 6D, read-out: IP1 production (normalized), single replicate values

Compound | IC50 (CysLT2R wild type) [nM] | IC50 (CysLT2R E310^8.48G) [nM] | IC50 (CysLT2R F137^3.51Y) [nM] | IC50 (CysLT2R K194 ^ECL2R) [nM] | IC50 (CysLT2R I126^3.40V) [nM] | IC50 (CysLT2R N301^7.49D) [nM] | IC50 (CysLT2R W51^1.45V) [nM] | IC50 (CysLT2R E310^8.48A) [nM] | IC50 (CysLT2R Y127^3.41W) [nM] | IC50 (CysLT2R M201^5.38V) [nM] | IC50 (CysLT2R N202^5.39H) [nM] | IC50 (CysLT2R F260^6.48W) [nM] | remaining activity at 1 µM (CysLT2R L129^3.43Q; [1]) [%] | remaining activity at 0.01 µM (CysLT2R L129^3.43Q; [2]) [%] | remaining activity at 0.001 µM (CysLT2R L129^3.43Q; [2]) [%] | reversal of constitutive activity (IP1 production) of L129^3.43Q (CysLT2R L129^3.43Q) | IC50 (CysLT2R K194 ^ECL2N) [nM] | IC50 (CysLT2R Y119^3.33F) [nM] | IC50 (CysLT2R H284^7.32Q) [nM] | IC50 (CysLT2R R267^6.55K) [nM] | also measured
CCCCC/C=C\C\C=C/C=C/C=C/[C@@H](SC[C@H](N)C(=O)NCC(=O)O)[C@@H](O)CCCC(=O)O [LTD4] | – | – | – | – | – | – | – | – | – | – | – | – | – | – | – | – | – | – | – | – | LTD4 conversion/degradation in functional assay (HEK293 cells): No LTD4 conversion was found; also recorded: No LTD4 degradation was observed
O=C(O)CCCN1C[C@@H](C(=O)O)Oc2c(NC(=O)c3ccc(OCCCCc4cc(F)ccc4Cl)cc3)cccc21 [cpd 11a] | 14 ± 6 | 2 ± 1 | 15 ± 5 | 60 ± 30 | 20 ± 10 | 170 ± 70 | 47 ± 10 | 8 ± 3 | 500 ± 400 | 30 ± 10 | 290 ± 100 | 40 ± 20 | 76.2 | 78.3 | 74.4 | not reversed | 8 ± 4 | 100 ± 40 | 230 ± 90 | 22 ± 9 | IC50 (CysLT2R V135^3.49D): 3 ± 3 nM; IC50 (CysLT2R S169^4.56A): 10 ± 4 nM; IC50 (CysLT2R K37^1.31R): 80 ± 30 nM
O=C(O)CCCN1CC(C(=O)O)Oc2c(NC(=O)c3ccc(OCCCCOc4cccc(F)c4F)cc3F)cccc21 (stereo not drawn) [cpd 11c] | 70 ± 20 | 7 ± 6 | 70 ± 20 | 40 ± 20 | 14 ± 5 | 110 ± 50 | 160 ± 30 | 18 ± 5 | 44 ± 10 | 60 ± 20 | 60 ± 30 | 330 ± 100 | 80.7 | 83.3 | 87.9 | not reversed | 32 ± 10 | 260 ± 100 | 270 ± 200 | 100 ± 30 | remaining activity at 0.1 µM (CysLT2R L129^3.43Q; HEK293, Log[Antagonist] -7 M, L129Q, Supp Figure 6D, read-out: IP1 production (normalized), single replicate values): 85.9%; remaining activity at 0.0001 µM (CysLT2R L129^3.43Q; HEK293, Log[Antagonist] -10 M, L129Q, Supp Figure 6D, read-out: IP1 production (normalized), single replicate values): 72.7%; remaining activity at 10 pM (CysLT2R L129^3.43Q; HEK293, Log[Antagonist] -11 M, L129Q, Supp Figure 6D, read-out: IP1 production (normalized), single replicate values): 64.1%; remaining activity at 1 pM (CysLT2R L129^3.43Q; HEK293, Log[Antagonist] -12 M, L129Q, Supp Figure 6D, read-out: IP1 production (normalized), single replicate values): 68%; IC50 (CysLT2R V135^3.49D): 40 ± 30 nM; IC50 (CysLT2R S169^4.56A): 16 ± 10 nM; IC50 (CysLT2R K37^1.31R): 280 ± 100 nM
